Activity calls are given as the source filed them.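 Rule for the calls: active = compounds giving half or more protection of infected cells from virus-caused growth loss, again on retest; inactive = the rest.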 Where a SMILES comes first, the peptide text is derived from it. The star is where a group is joined. Cbz = O=C(OCc1ccccc1)*; Boc = CC(C)(C)OC(=O)*; OBn = c1ccc(CO*)cc1
Test system: CEM cells HIV-1 protection, formazan growth assay
Test: NCI AIDS Antiviral Assay
Details: for IC50: measured here: growth of uninfected CEM cells
In short: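 CEM (human) cells, HIV-1 infected vs uninfected, 5-point dosing, formazan growth read-out. Retest threshold 50% protection.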

COc1ccc2c(c1)CCc1cnc(=S)[nH]c1-2
EC50: > 40.7 µM
IC50: > 40.7 µM

CC(=O)c1ccc(NC(=S)NN)cc1
EC50: > 174 µM
outcome: inactive
IC50: 148 µM

CN(C)c1ccc(C(=C2C=CC(=[N+](C)C)C=C2)c2cc(S(=O)(=O)O)cc3cc(S(=O)(=O)O)ccc23)cc1
EC50: > 100 µM
IC50: > 100 µM

N#Cc1c(-c2ccc(Cl)c(Cl)c2)c(-c2ccc(Cl)c(Cl)c2)nn(CCO)c1=O
EC50: > 41.7 µM
IC50: 0.759 µM

Cc1nn(C(=O)CC(=O)Nc2ccc(Cl)cc2)c(C)c1N=Nc1ccccc1C(=O)O
EC50: > 42.7 µM
IC50: > 42.7 µM

CC(=O)Nc1ccccc1/C=C\c1ccccn1
EC50: > 1050 µM
IC50: > 1050 µM

c1ccc(Nc2nnc(-c3nsc4ccccc34)o2)cc1
EC50: > 24.5 µM
IC50: > 24.5 µM

CC1=CC2OC3CC4OC(=O)/C=C/C=C/C(=O)OCCC(C)C(O)C(=O)OCC2(CC1O)C4(C)C31CO1 (centres undefined)
EC50: > 0.2 µM
IC50: 0.00347 µM

COc1c2c(cc3oc(C)c(C)c(=O)c13)OC(C)(C)C=C2
EC50: > 200 µM
IC50: 81.3 µM

COc1ccc(-c2ccccc2)cc1SSc1cc(-c2ccccc2)ccc1OC
EC50: > 200 µM
IC50: 178 µM

O=S(=O)(Nc1ccccc1)c1ccc(-c2c3nc(c(-c4ccc(S(=O)(=O)Nc5ccccc5)cc4)c4ccc([nH]4)c(-c4ccc(S(=O)(=O)Nc5ccccc5)cc4)c4nc(c(-c5ccc(S(=O)(=O)Nc6ccccc6)cc5)c5ccc2[nH]5)C=C4)C=C3)cc1
EC50: > 100 µM
IC50: > 100 µM

Oc1ccc(-c2csc(NNC3=NC/C(=C/c4ccc5c(c4)OCO5)S3)n2)cc1O
EC50: > 200 µM
IC50: 64.6 µM

O=[N+]([O-])c1ccc(C2OC3CC4C5CCCC5C3C4O2)cc1 (centres undefined)
EC50: > 200 µM
IC50: 19.5 µM

Nc1c(-c2ccccc2)c2ccc([N+](=O)[O-])cc2c(=O)n1-c1cccc(C(=O)O)c1
EC50: > 200 µM
IC50: 135 µM

CCOP(=O)(OCC)C(=O)C1CC1
EC50: > 1200 µM
IC50: 832 µM

C[C@H](N)C(O)C/C=C\CC(O)/C=C/C=C\C/C=C\C/C=C\C/C=C\CCCCCCC(O)[C@H](C)N (some centres undefined)
outcome: inactive

O=[N+]([O-])c1cccc(/C=N\NS(=O)(=O)c2ccc(Cl)cc2)c1O
EC50: > 363 µM
IC50: 61.7 µM

Cc1nc(C(N)=S)sc1C(/C=C/c1ccc(Cl)c(Cl)c1)=N/NC(C)(C)C
EC50: > 117 µM
IC50: > 117 µM

COc1ccc(C2C3=C(N=C4SC(C(C)=O)=C(C)N42)c2ccccc2CC3)cc1 (centres undefined)
EC50: > 200 µM
IC50: 17.4 µM

[N-]=[N+]=N/C1=C/CCCCC(=O)C1
outcome: inactive

COc1ccc(/C=C(/C(=O)O)c2ccccc2)cc1
EC50: > 708 µM
IC50: 288 µM

CCOC(=O)C(Cc1c2ccccc2cc2ccccc12)(NC(C)=O)C(=O)OCC
EC50: > 200 µM
IC50: > 200 µM

COC(=O)c1c[nH]c2c1-c1cc(C(=O)OCc3ccccc3)n(S(=O)(=O)c3ccc(C)cc3)c1C(=O)C2=O
EC50: > 200 µM
IC50: 3.72 µM

NC(CC(=O)OCc1ccccc1)C(=O)OCc1ccccc1 (centres undefined)
EC50: > 200 µM
IC50: > 200 µM

Cc1[nH]c(N)c(C#N)c1Cc1ccccc1
EC50: > 200 µM
IC50: > 200 µM

O=c1nc2ccc3sc4ccccc4c(=O)c3n2c(=O)[nH]1
EC50: > 200 µM
IC50: 110 µM

Cc1ccc(C)n1C1CCOC1=O (centres undefined)
outcome: inactive

COc1cc(N=Nc2ccccc2C(=O)O)cc(/C=N/NC(=O)c2cccnc2)c1O
EC50: > 12.3 µM
IC50: > 12.3 µM

CCN(CC)CCn1c2ccccc2c(=O)c2c(O)ccc(O)c21
outcome: inactive

Clc1ccc2cccc3c2c1C1OC3c2ccccc21 (centres undefined)
outcome: inactive

O=C(Cc1ccccc1)NN1C(=O)C(Cl)C1c1ccccc1Cl (centres undefined)
EC50: > 28.8 µM
IC50: > 28.8 µM

CC1(C)CNC[C@@](C)(O)C(=O)NC(C)(C)CNC[C@@](C)(O)C(=O)N1
EC50: > 200 µM
IC50: > 200 µM

Cc1ncc([N+](=O)[O-])n1CCn1ccnc1[N+](=O)[O-]
EC50: > 200 µM
IC50: > 200 µM

CCCN(CCC)c1cc2c(cc1F)c(=O)c(C(=O)O)cn2-c1ccc(N2CCN(C)CC2)cn1
EC50: > 200 µM
IC50: 14.8 µM

CC1(C)C2CCC1(C)C(OC(=O)/C=C/C(=O)OC1CC3CCC1(C)C3(C)C)C2 (centres undefined)
outcome: inactive

CCOC(=O)[C@@]12C3C=CC(CC3)[C@]1(C(=O)c1ccccc1)C(=O)C(=O)N2c1ccccc1 (some centres undefined)
EC50: > 200 µM
IC50: 110 µM

O=C1OC(=O)C([Se]c2ccccc2)=C1[Se]c1ccccc1
outcome: inactive

C/C(=C\[C@H]1C[C@@H]([C@@H]2CC[C@]34C[C@]23C=C[C@@H]2[C@@]3(C)CC=C5C[C@@H](c6ccccc6)OC[C@]5(C)[C@@H]3C[C@@H](O)[C@]24C)C(=O)O1)CO
EC50: > 200 µM
IC50: 1.1 µM

O=C(C[n+]1ccccc1)N/N=C(\Cc1nc2ccc([N+](=O)[O-])cc2[nH]c1=O)C(=O)Nc1cc(Cl)c(Cl)cc1Cl
EC50: > 79.4 µM
IC50: 66.1 µM

CC(/C=C/C(=O)c1sc(C(N)=S)nc1C)=C\c1ccccc1
EC50: > 79.4 µM
IC50: > 79.4 µM

N#CC1C(=N)Cc2ccccc2-c2ccccc21 (centres undefined)
EC50: > 200 µM
IC50: 1.55 µM

CN(C)C[C@H]1C2C=CC(C2)[C@@H]1CO (some centres undefined)
EC50: > 490 µM
IC50: > 490 µM

CC(=O)N1CC(C)(C)c2c1cc(C)c(O)c2C
EC50: > 200 µM
IC50: 132 µM

N#C/C(=C1\SC(=O)CN1c1ccc(Cl)cc1)c1nc2ccccc2o1
EC50: > 200 µM
IC50: 34.7 µM

C[C@H]1CC[C@@H]2[C@@H](C)C[C@H]3[C@@H]4C(C)(C)OC(=O)[C@]4(C)C(=O)[C@@]23C1=O
EC50: > 200 µM
IC50: 77.6 µM

CC(CN)OC12CC3CC(CC(C3)C1)C2 (centres undefined)
EC50: > 200 µM
IC50: 105 µM

CCCCCCCCCCCCCCCCC(O)CS(=O)(=O)O (centres undefined)
EC50: > 100 µM
IC50: 16.2 µM

CCO/C=C/C(C)C1(C(=O)OCC)CCCCC1=O (centres undefined)
EC50: > 97.7 µM
IC50: > 97.7 µM

O=C1c2ccccc2-c2c1c1ccccc1c(=O)n2CCO
EC50: > 34.7 µM
IC50: 1.95 µM

COc1cc2c[n+](C)c3c4cc(OC)c(OC(C)C)cc4ccc3c2cc1OC
EC50: > 295 µM
IC50: 13.5 µM

COC(=O)c1c(C#N)c(N)nc2c1CCC2
EC50: > 200 µM
IC50: > 200 µM

CC(O)C[P+](c1ccccc1)(c1ccccc1)c1ccccc1 (centres undefined)
EC50: > 200 µM
IC50: 15.8 µM

COC(=O)C(Cc1ccccc1)NP(=O)(O)OCC1OC(n2cc(I)c(=O)[nH]c2=O)CC1O (centres undefined)
EC50: > 200 µM
IC50: > 200 µM

CN(C)c1ccc2nc3c(C(=O)O)cc(=O)c(O)c-3oc2c1
EC50: > 100 µM
IC50: 13.8 µM

c1cnc2c(c1)-n1cccc1C1(CCOCC1)NN2
EC50: > 200 µM
IC50: > 200 µM

NC(=O)OCc1c(-c2ccccc2)nn(-c2ccccc2)c1COC(N)=O
EC50: > 200 µM
IC50: > 200 µM

COc1ccc([N+](=O)[O-])c2c(NCCCN(C)C)c(C)c(C)nc12
EC50: > 200 µM
IC50: 91.2 µM

O=C1OC(=Nc2ccccc2Cl)c2ccccc21
EC50: > 200 µM
IC50: > 200 µM

O=c1c(O)c(-c2ccccc2)n(O)c2ccc(Cl)cc12
EC50: > 18.2 µM
IC50: > 18.2 µM

NC(=O)C12C(=O)NC(=O)C1(C(=O)O)C2C1CCCCC1 (centres undefined)
outcome: inactive

CSc1n[n+](C)cc(N)c1N
EC50: > 200 µM
IC50: 28.8 µM

O=[N+]([O-])c1ccccc1S(=O)(=O)Oc1ccccc1
EC50: > 77.6 µM
IC50: 47.9 µM

NC(=O)c1ccc(NC(=O)c2ccccc2SC(=O)CCCC[n+]2ccccc2)cc1
EC50: 7.41 µM
IC50: 15.8 µM

Oc1ccc(/C=C/c2ccc(O)c(O)c2)cc1O
EC50: > 200 µM
IC50: 14.5 µM

Cc1[nH]c2[nH]c(=S)nc(NC(N)=S)c2c1Cc1ccccc1
EC50: > 100 µM
IC50: 41.7 µM

CN=c1c2c(c3[nH]c4ccccc4c4cnc1c34)NCCC2=O
EC50: > 200 µM
IC50: 1.41 µM

[N-]=[N+]=CC(=O)C1CCCN1C(=O)c1ccccc1 (centres undefined)
EC50: > 200 µM
IC50: > 200 µM

CC(=O)NC1(C)CC[C@H]2CC1C(C)=NC2(C)C (some centres undefined)
EC50: > 1050 µM
IC50: > 1050 µM

CCC(=O)C12OC3OC(C)(C)OC3C1OC(C)(C)O2 (centres undefined)
outcome: inactive

CCOC(=O)[C@H]1[C@@H]2CCCC[C@@]23C(Cl)(Cl)[C@@]32C[C@]1(C(=O)OCC)CCC(=O)O2
outcome: inactive

CCC1=C(C(C)=O)[C@@H]2CCCCC(C(=O)OC)[C@@H]2C1=O (some centres undefined)
EC50: > 200 µM
IC50: > 200 µM

CCCN(CCC)C(=O)COc1cc2c(O)c3c(O)c(C)c4c(c13)C(=O)C(C)(O/C=C/C(OC)C(C)C(OC(C)=O)C(C)C(O)C(C)C(O)C(C)/C=C/C=C(\C)C(=O)N2)O4 (centres undefined)
outcome: inactive

COc1ccc(C(=O)C2=NON3OC23C(=O)c2ccc(OC)cc2)cc1 (centres undefined)
EC50: > 38 µM
IC50: 6.76 µM

COC(=O)C(CCCCNC(=O)OCc1ccccc1)NC(=O)C(CCC(=O)OCc1ccccc1)NC(=O)OC(C)(C)C (centres undefined) (Boc-Glu(OBn)-Lys(Cbz)-OMe; configuration not given here)
EC50: > 200 µM
IC50: > 200 µM

C[CH2][Sn]([CH2]C)([O]C(=O)c1ccccc1F)[O]C(=O)c1ccccc1F
EC50: > 29.5 µM
IC50: 17.4 µM

CCc1ccccc1NC(=O)CC1NC(=O)CS1 (centres undefined)
EC50: > 339 µM
IC50: 214 µM

Clc1ccc(OC2CCO2)cc1Cl (centres undefined)
EC50: > 162 µM
IC50: 145 µM

CCOC1(c2ccccc2)OC(=O)c2ccccc21 (centres undefined)
outcome: inactive

Cn1cc(NC(=O)c2cc(NC(=O)CCCCCCCCC(=O)Nc3cc(C(=O)Nc4cc(C(=O)NCCC(N)N)n(C)c4)n(C)c3)cn2C)cc1C(=O)NCCC(=N)N
EC50: > 28.8 µM
IC50: 12.6 µM

C[C@@H](NC(=O)Nc1cccc(C(=O)Nc2cc(C(C)(C)C)ccc2C(=O)O)n1)c1ccccc1
EC50: > 200 µM
IC50: 17.4 µM

O=C1ON(c2ccccc2)C(c2ccccc2)N1c1ccccc1 (centres undefined)
EC50: > 200 µM
IC50: 61.7 µM

COc1ccccc1C1C(C#N)C(=O)NC(=O)C1C#N (centres undefined)
EC50: > 200 µM
IC50: > 200 µM

Cc1cc(=O)oc2c(C)c3oc(CBr)c(Br)c3cc12
EC50: > 200 µM
IC50: 2.24 µM

[O-]c1c[n+](C23CCC(c4ccccc42)c2ccccc23)no1
EC50: > 200 µM
IC50: 97.7 µM

CC1(C)N=C(C(N)=O)c2ncn(-c3ccccc3)c2N1
EC50: > 200 µM
IC50: > 200 µM

Source: PubChem BioAssay AID179 (DTP/NCI, 2004)
